Data set [1] can be described thus: Stability test (purity and XRPD pattern after 30 days storage). Type of data set: physicochemical. As to conditions: for stability compared to the amorphous form: conclusion from Table 6. As for the experimental part:
X-ray powder diffraction instrument and test conditions involved in the present disclosure: the model of the X-ray diffraction instrument was Rigaku MiniFlex-600 Cu target; the operation method included a scanning speed of 10°/min and scanning step width of 0.01°.
High-performance liquid chromatography (HPLC) test conditions involved in the present disclosure: the model of the liquid chromatograph was Agilent 1260; the chromatographic column was Welch XB C-18 250 mm*4.6 mm 3 μm; the detection wavelength was 260 nm; and the column temperature was 40° C.
The amorphous form of compound represented by Formula I prepared in the described preparation examples, the crystal form A of the compound represented by Formula I prepared in Example 1, the crystal form B of the compound represented by Formula I prepared in Example 9, the crystal form C of the compound represented by Formula I prepared in Example 12, the crystal form D of the compound represented by Formula I prepared in Example 17, and the crystal form E of the compound represented by Formula I prepared in Example 20 were placed under various conditions: 75% RH, 92.5% RH, 40° C., 60° C., and illumination for 30 days, the X-ray powder diffraction pattern and purity of each crystal form were determined, and the specific results are shown in Table 6.

A short description of another data set: Granularity test. The format is physicochemical. An excerpt:
(§1) The amorphous form of the compound represented by Formula I prepared in Preparation Example, the crystal form A of the compound represented by Formula I prepared in Example 1, the crystal form B of the compound represented by Formula I prepared in Example 9, the crystal form C of the compound represented by Formula I prepared in Example 12, the crystal form D of the compound represented by Formula I prepared in Example 17, and the crystal form E of the compound represented by Formula I prepared in Example 20 were measured for granularity, and the specific results are shown in Table 7 below: […]

Data set [2] can be described thus: Fluidity test (angle of repose). Type of data set: physicochemical. Conditions: for fluidity compared to the amorphous form: conclusion from Table 8.
Text: as §1, with “for angle of repose,” for “for granularity,”, “Table 8” for “Table 7”

The nature of another data set: Hygroscopicity test. Type of data set: physicochemical. Conditions: for hygroscopicity: 75% RH and 25° C. for 24 h; for hygroscopicity compared to the amorphous form: conclusion from Table 9. From the text: The amorphous form of the compound represented by Formula I prepared in Preparation Example, the crystal form A of the compound represented by Formula I prepared in Example 1, the crystal form B of the compound represented by Formula I prepared in Example 9, the crystal form C of the compound represented by Formula I prepared in Example 12, the crystal form D of the compound represented by Formula I prepared in Example 17, and the crystal form E of the compound represented by Formula I prepared in Example 20 were placed in an environment of 75% RH and 25° C. for 24 h and then each was weighed to calculate the hygroscopicity.

In another data set the target is RET kinase (Homo sapiens, UniProt P07949). Conditions: stated for WO2020/207419A1; cited from earlier work.
Chain of RET kinase (P07949 29-1114): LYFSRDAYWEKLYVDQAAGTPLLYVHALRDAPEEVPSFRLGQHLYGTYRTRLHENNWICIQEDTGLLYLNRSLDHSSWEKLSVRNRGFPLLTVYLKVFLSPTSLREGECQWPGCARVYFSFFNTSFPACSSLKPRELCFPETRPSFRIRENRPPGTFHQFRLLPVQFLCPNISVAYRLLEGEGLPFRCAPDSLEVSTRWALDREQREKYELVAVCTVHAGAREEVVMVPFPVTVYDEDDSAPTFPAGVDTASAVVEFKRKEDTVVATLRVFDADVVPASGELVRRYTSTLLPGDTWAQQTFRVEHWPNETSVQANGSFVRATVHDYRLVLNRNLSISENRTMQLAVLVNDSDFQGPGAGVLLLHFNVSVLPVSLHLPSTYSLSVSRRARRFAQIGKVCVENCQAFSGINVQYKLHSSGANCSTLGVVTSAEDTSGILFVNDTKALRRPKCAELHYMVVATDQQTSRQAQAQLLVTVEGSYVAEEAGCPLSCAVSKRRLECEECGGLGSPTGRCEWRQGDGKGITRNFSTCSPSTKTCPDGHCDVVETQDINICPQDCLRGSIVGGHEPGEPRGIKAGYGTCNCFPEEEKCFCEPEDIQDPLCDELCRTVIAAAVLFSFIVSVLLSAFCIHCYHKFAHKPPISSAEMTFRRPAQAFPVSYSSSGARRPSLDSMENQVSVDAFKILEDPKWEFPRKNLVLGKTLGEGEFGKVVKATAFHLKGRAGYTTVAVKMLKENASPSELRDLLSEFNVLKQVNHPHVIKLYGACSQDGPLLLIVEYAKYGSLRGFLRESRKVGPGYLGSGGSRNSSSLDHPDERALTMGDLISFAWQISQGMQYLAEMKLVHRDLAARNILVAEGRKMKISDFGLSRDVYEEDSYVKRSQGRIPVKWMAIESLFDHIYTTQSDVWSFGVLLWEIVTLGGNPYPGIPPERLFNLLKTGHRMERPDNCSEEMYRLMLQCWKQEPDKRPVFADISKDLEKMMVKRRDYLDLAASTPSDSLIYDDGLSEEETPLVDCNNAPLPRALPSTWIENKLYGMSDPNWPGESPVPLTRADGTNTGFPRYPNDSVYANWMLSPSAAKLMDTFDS

In the case of `Cc1cc(Nc2cc(C)[nH]n2)nc(N2CC3CCC(C2)N3C(=O)c2ccc(-n3cc(F)cn3)nn2)n1` [crystal form B, (6-(4-fluoro-1H-pyrazol-1-yl)pyridazin-3-yl)(3-(4-methyl-6-((5-methyl-1H-pyrazol-3-yl)amino)pyrimidin-2-yl)-3,8-diazabicyclo[3.2.1]octan-8-yl) methanone], the “stability compared to the amorphous form” value in data set [1] is “better stability”. Further, the purity was 99.80 in data set [1] (day 0); 99.68 in data set [1] (day 30 at 40° C.); 99.62 in data set [1] (day 30 at 60° C.); 99.52 in data set [1] (day 30 under 75% RH); 99.23 in data set [1] (day 30 under 92.5% RH); 98.56 in data set [1] (day 30 under illumination). Further, in the data set “Granularity test”, the “D50 (granularity)” value was 32.53 μm. Also, the “D90 (granularity)” value in “Granularity test” is 86.77 μm. Also, the “fluidity compared to the amorphous form” value in data set [2] was “significantly superior”. Further, the angle of repose in data set [2] (measurement 1) amounted to 33.4°; in data set [2] (measurement 2), 34.1°; in data set [2] (measurement 3), 34.2°. Moreover, the hygroscopicity in “Hygroscopicity test” was determined as 0.05%. In addition, in the data set “Hygroscopicity test”, the “hygroscopicity compared to the amorphous form” value is “significantly better”.

Turning to `Cc1cc(Nc2cc(C)[nH]n2)nc(N2CC3CCC(C2)N3C(=O)c2ccc(-n3cc(F)cn3)nn2)n1` [crystal form C, (6-(4-fluoro-1H-pyrazol-1-yl)pyridazin-3-yl)(3-(4-methyl-6-((5-methyl-1H-pyrazol-3-yl)amino)pyrimidin-2-yl)-3,8-diazabicyclo[3.2.1]octan-8-yl) methanone], the “stability compared to the amorphous form” value in data set [1] is on record as “better stability”. The purity in data set [1] (day 0) is 99.75; in data set [1] (day 30 at 40° C.) it was 99.51; in data set [1] (day 30 at 60° C.) it was 99.38; in data set [1] (day 30 under 75% RH), 99.45; in data set [1] (day 30 under 92.5% RH), 99.08; in data set [1] (day 30 under illumination), 98.22. In “Granularity test”, the “D50 (granularity)” value was determined as 31.58 μm. The “D90 (granularity)” value in “Granularity test” is 79.47 μm. In data set [2], the “fluidity compared to the amorphous form” value is on record as “significantly superior”. Moreover, the angle of repose in data set [2] (measurement 1) is reported as 33.8°; in data set [2] (measurement 2), 33.9°; in data set [2] (measurement 3), 33.2.°. In “Hygroscopicity test”, this molecule gave a hygroscopicity of 0.06%. Also, in the data set “Hygroscopicity test”, the “hygroscopicity compared to the amorphous form” value was “significantly better”.

Regarding `Cc1cc(Nc2cc(C)[nH]n2)nc(N2CC3CCC(C2)N3C(=O)c2ccc(-n3cc(F)cn3)nn2)n1` [amorphous form, (6-(4-fluoro-1H-pyrazol-1-yl)pyridazin-3-yl)(3-(4-methyl-6-((5-methyl-1H-pyrazol-3-yl)amino)pyrimidin-2-yl) 3,8-diazabicyclo[3.2.1]octane-8-yl) methanone, reference compound], the purity in data set [1] (day 0) is given as 96.77; in data set [1] (day 30 at 40° C.), 96.17 (its; in data set [1] (day 30 at 60° C.), 95.98 (its; in data set [1] (day 30 under 75% RH) it was 95.94; in data set [1] (day 30 under 92.5% RH) it was 95.23; in data set [1] (day 30 under illumination), 94.37. The “X-ray powder diffraction pattern after storage” value in data set [1] (day 30 at 40° C.) and in data set [1] (day 30 at 60° C.) was “changes)” each time. For the same molecule, the “D50 (granularity)” value in the data set “Granularity test” worked out at 3.52 μm. The “D90 (granularity)” value in “Granularity test” is 18.45 μm. Further, in the data set “Granularity test” (conclusion from Table 7), the “granularity compared to crystal forms A, B, C, D and E” value was “significantly smaller”. Besides, the “D50 of amorphous form relative to the crystal form D50” value in “Granularity test” (versus crystal forms A-E) is listed as “not more than 12%”. In addition, the “D90 of amorphous form relative to the crystal form D90” value in “Granularity test” (versus crystal forms A-E) is listed as “not more than 25%”. Also, the angle of repose is listed as 43.8° in data set [2] (measurement 1), 44.3° in data set [2] (measurement 2) and 43.4° in data set [2] (measurement 3). In the data set “Hygroscopicity test”, the hygroscopicity worked out at 0.45%.

For `Cc1cc(Nc2cc(C)[nH]n2)nc(N2CC3CCC(C2)N3C(=O)c2ccc(-n3cc(F)cn3)nn2)n1` [crystal form E, (6-(4-fluoro-1H-pyrazol-1-yl)pyridazin-3-yl)(3-(4-methyl-6-((5-methyl-1H-pyrazol-3-yl)amino)pyrimidin-2-yl)-3,8-diazabicyclo[3.2.1]octan-8-yl) methanone], in data set [1], the “stability compared to the amorphous form” value is reported as “better stability”. In addition, the purity in data set [1] (day 0) is reported as 99.76; in data set [1] (day 30 at 40° C.), 99.70; in data set [1] (day 30 at 60° C.), 99.65; in data set [1] (day 30 under 75% RH) it was 99.60; in data set [1] (day 30 under 92.5% RH) it was 99.50; in data set [1] (day 30 under illumination), 98.65. The “D50 (granularity)” value in “Granularity test” is 30.36 μm. In addition, the “D90 (granularity)” value in “Granularity test” amounted to 75.89 μm. In addition, the “fluidity compared to the amorphous form” value in data set [2] was “significantly superior”. Also, the angle of repose amounted to 34.2° in data set [2] (measurement 1), 35.1° in data set [2] (measurement 2) and 34.8° in data set [2] (measurement 3). The molecule also had a hygroscopicity in the data set “Hygroscopicity test” of 0.05%. Further, in the data set “Hygroscopicity test”, the “hygroscopicity compared to the amorphous form” value is on record as “significantly better”.

On to `Cc1cc(Nc2cc(C)[nH]n2)nc(N2CC3CCC(C2)N3C(=O)c2ccc(-n3cc(F)cn3)nn2)n1` [crystal form A, (6-(4-fluoro-1H-pyrazol-1-yl)pyridazin-3-yl)(3-(4-methyl-6-((5-methyl-1H-pyrazol-3-yl)amino)pyrimidin-2-yl)-3,8-diazabicyclo[3.2.1]octan-8-yl) methanone], for which the “stability compared to the amorphous form” value in data set [1] is recorded as “better stability”. The purity in data set [1] (day 0) is on record as 99.85; in data set [1] (day 30 at 40° C.), 99.80; in data set [1] (day 30 at 60° C.), 99.77; in data set [1] (day 30 under 75% RH) it was 99.67; in data set [1] (day 30 under 92.5% RH) it was 99.48; in data set [1] (day 30 under illumination) it was 98.88. Also, in the data set “Granularity test”, the “D50 (granularity)” value is on record as 38.62 μm. In addition, in the data set “Granularity test”, the “D90 (granularity)” value was 95.11 μm. Moreover, the “fluidity compared to the amorphous form” value in data set [2] is reported as “significantly superior”. Further, the angle of repose in data set [2] (measurement 1) turned out to be 32.5°; in data set [2] (measurement 2), 31.9°; in data set [2] (measurement 3), 32.2°. This molecule also registered a hygroscopicity in the data set “Hygroscopicity test” of 0.02%. The “hygroscopicity compared to the amorphous form” value in “Hygroscopicity test” is “significantly better”.

In the case of `Cc1cc(Nc2cc(C)[nH]n2)nc(N2CC3CCC(C2)N3C(=O)c2ccc(-n3cc(F)cn3)nn2)n1` [crystal form D, (6-(4-fluoro-1H-pyrazol-1-yl)pyridazin-3-yl)(3-(4-methyl-6-((5-methyl-1H-pyrazol-3-yl)amino)pyrimidin-2-yl)-3,8-diazabicyclo[3.2.1]octan-8-yl) methanone], the “stability compared to the amorphous form” value in data set [1] was “better stability”. Further, the purity in data set [1] (day 0) was 99.60; in data set [1] (day 30 at 40° C.), 99.42; in data set [1] (day 30 at 60° C.) it was 99.33; in data set [1] (day 30 under 75% RH), 99.35; in data set [1] (day 30 under 92.5% RH), 99.01; in data set [1] (day 30 under illumination) it was 98.23. For the same molecule, in “Granularity test”, the “D50 (granularity)” value turned out to be 33.64 μm. Besides, in the data set “Granularity test”, the “D90 (granularity)” value was 83.56 μm. Also, in data set [2], the “fluidity compared to the amorphous form” value was “significantly superior”. The angle of repose is reported as 33.0° in data set [2] (measurement 1), 33.8° in data set [2] (measurement 2) and 33.3° in data set [2] (measurement 3). This molecule returned a hygroscopicity in “Hygroscopicity test” of 0.08%. Further, the “hygroscopicity compared to the amorphous form” value in the data set “Hygroscopicity test” is listed as “significantly better”.

For `Cc1cc(Nc2cc(C)[nH]n2)nc(N2CC3CCC(C2)N3C(=O)c2ccc(-n3cc(F)cn3)nn2)n1` [compound represented by formula I, (6-(4-fluoro-1H-pyrazol-1-yl)pyridazin-3-yl)(3-(4-methyl-6-((5-methyl-1H-pyrazol-3-yl)amino)pyrimidin-2-yl)-3,8-diazabicyclo[3.2.1]octan-8-yl) methanone], the “effect of inhibiting RET kinase” value at RET kinase is “good effect of inhibiting RET kinase”.

Values taken from patent publication US20260258020A1, “CRYSTAL FORM OF PIPERAZINE AMIDE DERIVATIVE, PREPARATION METHOD THEREFOR AND USE THEREOF” (ZHEJIANG HISUN PHARMACEUTICAL CO., LTD., priority 2022, published 2026).
